Results published in patent US20060013866A1, “Transdermal drug delivery formulations with optimal amounts of vasodilators therein” (priority 2004, published 2006).

Experiments:
Format in all cases: in vivo
[1] = Topical ibuprofen vehicle with tolazoline applied to rabbits, ibuprofen in plasma over three hours; settings: 150 mg sodium salt-ibuprofen
Protocol: Test formulations containing 15% ibuprofen- sodium salt, 5% oleic acid, 10% menthol, 5% propylene glycol, 10% dimethylacetamide, 1% decylmethylsulfoxide, 1% u-care, varying amounts of tolazoline ranging from 0-0.1%, and 52.9-53% deionized water were each blended in a beaker with a mechanical mixer and heated to 40° C. for 30 minutes until clear, then cooled to room temperature.
150 mg of sodium salt-ibuprofen was formulated with the above lipid-based vehicle formulatiosn containing increasing amounts of the vasodilator tolazoline. The Ibuprofen vehicle was topically applied to rabbits and blood samples were taken over a three-hour period. Plasma was prepared and analyzed for the amount of ibuprofen present in the blood. The data represents the integrated value of ibuprofen concentration in the blood for the three hour time period for each concentration of tolazoline.

[2] = Topical ibuprofen vehicle with tocopherol nicotinate applied to rabbits, ibuprofen in plasma over three hours
Protocol: Test formulations containing 15% ibuprofen-sodium salt, 5% oleic acid, 10% menthol, 5% propylene glycol, 10% dimethylacetamide, 1% decylmethylsulfoxide, 1% u-care, varying amounts of tocopherol nicotinate in the range of 0-1%, and 52-53% deionized water were each blended in a beaker with a mechanical mixer and heated to 40° C. for 30 minutes until clear, then cooled to room temperature.
150 mg of sodium salt-ibuprofen was formulated with a 1-gram dose of the above lipid-based vehicle formulations containing the increasing amounts of the vasodilator tocopherol nicotinate. The Ibuprofen vehicle was topically applied to rabbits and blood samples were taken over a three-hour period. Plasma was prepared and analyzed for the amount of ibuprofen present in the blood. The data represents the integrated value of ibuprofen concentration in the blood for the three hour time period for each concentration of tocopherol nicotinate.

[3] = Topical ibuprofen vehicle with papaverine applied to rabbits, ibuprofen in plasma over three hours; settings: 150 mg sodium salt-ibuprofen
Protocol: Test formulations containing 15% ibuprofen-sodium salt, 5% oleic acid, 10% menthol, 5% propylene glycol, 10% dimethylacetamide, 1% decylmethylsulfoxide, 1% u-care, varying amounts of papaverine ranging from 0-1%, and 52-53% deionized water were each blended in a beaker with a mechanical mixer and heated to 40° C. for 30 minutes until clear, then cooled to room temperature.
150 mg of sodium salt-ibuprofen was formulated with the above lipid-based vehicle formulatiosn containing increasing amounts of the vasodilator papaverine. The Ibuprofen vehicle was topically applied to rabbits and blood samples were taken over a three-hour period. Plasma was prepared and analyzed for the amount of ibuprofen present in the blood. The data represents the integrated value of ibuprofen concentration in the blood for the three hour time period for each concentration of papaverine.

[4] = Maximal blood flow stimulated by vasodilator, laser Doppler perfusion imager
Description: The present invention also relates to the methods needed to obtain the optimal transdermal delivery of drugs as a function of enhanced delivery resulting from the presence of vasodilator chemicals relates to the topical application of therapeutic or diagnostic agents for the systemic or localized distribution of therapeutic or diagnostic agents for the purpose of treating or detecting diseases and medical conditions. The topically applied agents may be administered at different locations on the human body to achieve access to the circulatory system. The inclusion of chemical vasodilator facilitates the transportation of the therapeutic and diagnostic agents. Chemical vasodilators act through a mechanism-specific basis resulting in a stimulation or inhibition of the uptake of the therapeutic or diagnostic agents. […] Transdermal delivery of the drug molecule as a function of the vasodilator is evaluated in a living suitable animal model or human test subject, topically applying the test formulations, which contain varying amounts of vasodilator. […] Effective transdermal drug delivery is measured by determining the amount of drug present in the blood plasma as a function of time following the single application. […]
Maximal blood flow stimulated by the vasodilator tolazoline was measured using a laser Doppler perfusion imager.

CC(C)Cc1ccc(C(C)C(=O)O)cc1 (centres unmarked) [Ibuprofen, ibuprofen]
integrated value of ibuprofen concentration in the blood (0-3 hr) ([1]; Control (no tolazoline)): 1030 ng·h/mL | integrated value of ibuprofen concentration in the blood (0-3 hr) ([1]; tolazoline 0.0010%): 3900 ng·h/mL | integrated value of ibuprofen concentration in the blood (0-3 hr) ([1]; tolazoline 0.0050%): 5240 ng·h/mL | integrated value of ibuprofen concentration in the blood (0-3 hr) ([1]; tolazoline 0.0100%): 5660 ng·h/mL | integrated value of ibuprofen concentration in the blood (0-3 hr) ([1]; tolazoline 0.0500%): 3530 ng·h/mL | integrated value of ibuprofen concentration in the blood (0-3 hr) ([1]; tolazoline 0.100%): 4530 ng·h/mL | integrated value of ibuprofen concentration in the blood (0-3 hr) ([2]; 150 mg sodium salt-ibuprofen in 1-gram dose, Control (no tocopherol nicotinate)): 1030 ng·h/mL | integrated value of ibuprofen concentration in the blood (0-3 hr) ([2]; 150 mg sodium salt-ibuprofen, tocopherol nicotinate 0.00010%): 3980 ng·h/mL | integrated value of ibuprofen concentration in the blood (0-3 hr) ([2]; 150 mg sodium salt-ibuprofen, tocopherol nicotinate 0.00025%): 9480 ng·h/mL | integrated value of ibuprofen concentration in the blood (0-3 hr) ([2]; 150 mg sodium salt-ibuprofen, tocopherol nicotinate 0.00050%): 3120 ng·h/mL | integrated value of ibuprofen concentration in the blood (0-3 hr) ([2]; 150 mg sodium salt-ibuprofen, tocopherol nicotinate 0.0010%): 5080 ng·h/mL | integrated value of ibuprofen concentration in the blood (0-3 hr) ([2]; 150 mg sodium salt-ibuprofen, tocopherol nicotinate 0.0100%): 5840 ng·h/mL | integrated value of ibuprofen concentration in the blood (0-3 hr) ([2]; 150 mg sodium salt-ibuprofen, tocopherol nicotinate 0.100%): 4300 ng·h/mL | integrated value of ibuprofen concentration in the blood (0-3 hr) ([2]; 150 mg sodium salt-ibuprofen, tocopherol nicotinate 1.000%): 4400 ng·h/mL | integrated value of ibuprofen concentration in the blood (0-3 hr) ([3]; Control (no papaverine)): 1030 ng·h/mL | integrated value of ibuprofen concentration in the blood (0-3 hr) ([3]; papaverine 0.00010%): 5120 ng·h/mL | integrated value of ibuprofen concentration in the blood (0-3 hr) ([3]; papaverine 0.00025%): 4470 ng·h/mL | integrated value of ibuprofen concentration in the blood (0-3 hr) ([3]; papaverine 0.00050%): 8370 ng·h/mL | integrated value of ibuprofen concentration in the blood (0-3 hr) ([3]; papaverine 0.0010%): 7620 ng·h/mL | integrated value of ibuprofen concentration in the blood (0-3 hr) ([3]; papaverine 0.0100%): 5720 ng·h/mL | integrated value of ibuprofen concentration in the blood (0-3 hr) ([3]; papaverine 0.100%): 4230 ng·h/mL | integrated value of ibuprofen concentration in the blood (0-3 hr) ([3]; papaverine 1.000%): 6160 ng·h/mL

c1ccc(CC2=NCCN2)cc1 [tolazoline]
concentration of tolazoline at which the maximum blood flow was achieved [4]: 0.5%
